EC50 data for 31 compounds are collected here from patent publication US20240166652A1, “MODULATORS OF THE INTEGRATED STRESS PATHWAY” (Calico Life Sciences LLC, priority 2017, published 2024).

The term EC50 denotes the concentration needed to bring the measured effect to its halfway point.

This experiment deals with ATF4 luciferase reporter in HEK293T cells. In words: ATF4-Luc assay (ATF4 luciferase reporter, tunicamycin-treated HEK293T cells). The format is cell-based, human. Particulars: Homo sapiens, HEK-293T; HEK293T cells carrying the ATF4 luciferase reporter, 1 μg/mL tunicamycin, 7 hours.

Molecules are shown by their SMILES.

With `O=C(COc1ccc(Cl)c(F)c1)NC12CCC(NC(=O)COc3ccc(Cl)c(F)c3)(CC1)C(Br)C2=O` (stereo not shown) [Compound 572, N,N′-(2-bromo-3-oxobicyclo[2.2.2]octane-1,4-diyl)bis[2-(4-chloro-3-fluorophenoxy)acetamide]], the concentration giving a half-maximal response (EC50) lay within 10 to 50 nM.

In the case of `O=C(COCc1ccccc1)NC12CC(NC(=O)COc3ccc(Cl)cc3)(C1)C2` [Compound 208, 2-(benzyloxy)-N-{3-[2-(4-chlorophenoxy)acetamido]bicyclo[1.1.1]pentan-1-yl}acetamide], the 50% effective concentration (EC50) fell in the range of 50 to 250 nM.

Regarding `O=C(COc1ccc(Cl)c(F)c1)NC12CC(NC(=O)OCc3cccc(Cl)c3)(C1)C2` [Compound 164, (3-chlorophenyl)methyl {3-[2-(4-chloro-3-fluorophenoxy)-acetamido]bicyclo[1.1.1]pentan-1-yl}carbamate], the EC50 lay in the range of 500 to 2000 nM.

For the compound `CC(C)(C)[Si](C)(C)OCCN(C(=O)COc1ccc(Cl)c(F)c1)C12CC(NC(=O)COc3ccc(Cl)c(F)c3)(C1)C2` [Compound 189, N-(2-{[tert-butyl(dimethyl)silyl]oxy}ethyl)-2-(4-chloro-3-fluorophenoxy)-N-{3-[2-(4-chloro-3-fluorophenoxy)acetamido]bicyclo[1.1.1]pentan-1-yl}acetamide], the EC50 lay in the range of 500 to 2000 nM.

Turning to `CN(C)c1cccc(CCOCC(=O)NC23CC(NC(=O)COc4ccc(Cl)c(F)c4)(C2)C3)c1` [Compound 145, 2-(4-chloro-3-fluorophenoxy)-N-[3-(2-{2-[3-(dimethylamino)phenyl]ethoxy}-acetamido)bicyclo[1.1.1]pentan-1-yl]acetamide], the EC50 was above 2000 nM.

In the case of `O=C(Cc1ccc(Cl)c(F)c1)NC12CCC(NC(=O)COc3ccc(Cl)c(F)c3)(CC1)[C@@H](O)C2` [Compound 608, 2-(4-chloro-3-fluorophenoxy)-N-{(2S)-4-[2-(4-chloro-3-fluorophenyl)acetamido]-2-hydroxybicyclo[2.2.2]octan-1-yl}acetamide], the concentration giving a half-maximal response (EC50) lay in the range of 50 to 250 nM.

For `O=C(COc1ccc(Cl)c(Cl)c1)NC12CCC(NC(=O)OCc3ccccc3)(C1)C2` [Compound 193, benzyl {4-[2-(3,4-dichlorophenoxy)acetamido]bicyclo[2.1.1]hexan-1-yl}carbamate], the concentration giving a half-maximal response (EC50) is above 2000 nM.

Consider `N#Cc1ccc(OCC(=O)NC23CC(NC(=O)COc4ccc(Cl)c(F)c4)(C2)C3)cn1` [Compound 238, 2-(4-chloro-3-fluorophenoxy)-N-(3-{2-[(6-cyanopyridin-3-yl)oxy]acetamido}bicyclo[1.1.1]pentan-1-yl)acetamide], for which the EC50 lay in the range of 10 to 50 nM.

Consider `CS(=O)(=O)c1cc(OCC(=O)NC23CCC(NC(=O)COc4ccc(F)cc4)(CC2)[C@@H](O)C3)ccc1F` [Compound 819, 2-[4-fluoro-3-(methanesulfonyl)phenoxy]-N-{(3S)-4-[2-(4-fluorophenoxy)acetamido]-3-hydroxybicyclo[2.2.2]octan-1-yl}acetamide], for which the concentration giving a half-maximal response (EC50) lay in the range of 500 to 2000 nM.

As for `O=C(COc1ccc(Cl)c(F)c1)NC12CC(NC(=O)Cc3ccc(C(F)(F)F)cc3)(C1)C2` [Compound 341, 2-(4-chloro-3-fluorophenoxy)-N-(3-{2-[4-(trifluoromethyl)phenyl]acetamido}bicyclo[1.1.1]pentan-1-yl)acetamide], the concentration for a half-maximal effect (EC50) was in the range of 50 to 250 nM.

As to `O=C(COc1ccc(Cl)c(F)c1)NC12CCC(NC(=O)COc3ccc(Cl)c(F)c3)(CC1)[C@H](C(=O)O)C2` [Compound 559, (2R)-1,4-bis[2-(4-chloro-3-fluorophenoxy)acetamido]bicyclo[2.2.2]octane-2-carboxylic Acid], the EC50 fell in the range of 500 to 2000 nM.

For `N[C@H](CC(=O)NC12CC(NC(=O)COc3ccc(Cl)c(F)c3)(C1)C2)Cc1ccccc1` [Compound 810, (3S)-3-amino-N-{3-[2-(4-chloro-3-fluorophenoxy)acetamido]bicyclo[1.1.1]pentan-1-yl}-4-phenylbutanamide], the EC50 is above 2000 nM.

As to `O=C(COc1ccc(Cl)c(F)c1)NC12CCC(NC(=O)COc3ccc(C(F)(F)F)nc3)(CC1)C(O)C2` (racemic) [Compound 301, 2-(4-chloro-3-fluorophenoxy)-N-[3-hydroxy-4-(2-{[6-(trifluoromethyl)pyridin-3-yl]oxy}acetamido)bicyclo[2.2.2]octan-1-yl]acetamide], the EC50 is below 10 nM.

Regarding `Cc1cc(OCC(=O)NC23CCC(NC(=O)COc4ccc(Cl)cc4)(CC2)[C@@H](O)C3)ccc1F` [Compound 816, 2-(4-chlorophenoxy)-N-{(2S)-4-[2-(4-fluoro-3-methylphenoxy)acetamido]-2-hydroxybicyclo[2.2.2]octan-1-yl}acetamide], the half-maximal effective concentration (EC50) was below 10 nM.

On to `O=C(COc1ccc(Cl)c(F)c1)NC12CCC(NC(=O)COc3ccc4ccccc4c3)(CC1)[C@@H](O)C2` [Compound 517, 2-(4-chloro-3-fluorophenoxy)-N-[(3S)-3-hydroxy-4-{2-[(naphthalen-2-yl)oxy]acetamido}bicyclo[2.2.2]octan-1-yl]acetamide], for which the EC50 is below 10 nM.

For the compound `O=C(COc1ccc(F)c(F)c1)NC12CC(NC(=O)COc3ccc(F)c(Cl)c3)(C1)C2` [Compound 590, 2-(3-chloro-4-fluorophenoxy)-N-{3-[2-(3,4-difluorophenoxy)acetamido]bicyclo[1.1.1]pentan-1-yl}acetamide], the 50% effective concentration (EC50) is below 10 nM.

As for `O=C(COc1cnc(C(=O)O)nc1)NC12CCC(NC(=O)COc3ccc(Cl)c(F)c3)(CC1)[C@@H](O)C2` [Compound 642, 5-[2-({(3S)-4-[2-(4-chloro-3-fluorophenoxy)acetamido]-3-hydroxybicyclo[2.2.2]octan-1-yl}amino)-2-oxoethoxy]pyrimidine-2-carboxylic Acid], the EC50 was above 2000 nM.

In the case of `O=C(COc1ccc(Cl)c(F)c1)NC12CC(N(CCO)CCCOc3ccc(Cl)c(F)c3)(C1)C2` [Compound 692, 2-(4-chloro-3-fluorophenoxy)-N-(3-{[3-(4-chloro-3-fluorophenoxy)propyl](2-hydroxyethyl)amino}bicyclo[1.1.1]pentan-1-yl)acetamide], the EC50 was in the range of 250 to 500 nM.

Regarding `Cc1cc(OCC(=O)NC23CC(NC(=O)COc4ccc(Cl)cc4)(C2)C3)ccc1Cl` [Compound 116, 2-(4-chloro-3-methylphenoxy)-N-{3-[2-(4-chlorophenoxy)acetamido]bicyclo-[1.1.1]pentan-1-yl}acetamide], the EC50 is below 10 nM.

`NC(=O)C1CC2(NC(=O)COc3ccc(Cl)c(F)c3)CCC1(NC(=O)COc1ccc(Cl)c(F)c1)CC2` (stereo not shown) [Compound 441, 1,4-bis[2-(4-chloro-3-fluorophenoxy)acetamido]bicyclo[2.2.2]octane-2-carboxamide]: the EC50 is 10 to 50 nM.

Consider `COC1CC2(NC(=O)COc3ccc(Cl)c(F)c3)CCC1(NC(=O)COc1ccc(Cl)c(F)c1)CC2` (stereo not shown) [Compound 299, N,N′-(2-methoxybicyclo[2.2.2]octane-1,4-diyl)bis[2-(4-chloro-3-fluorophenoxy)acetamide]], for which the EC50 lay in the range of 10 to 50 nM.

In the case of `O=C(COc1ccc(Cl)c(F)c1)N[C@@H]1C[C@@H]2C[C@H]1C[C@H]2NC(=O)COc1ccc(Cl)c(F)c1` (single isomer, unassigned) [Compound 621], the 50% effective concentration (EC50) is below 10 nM.

In the case of `O=C(COc1ccc(F)c(F)c1)NC12CCC(NC(=O)COc3ccc4c(c3)OC(F)(F)O4)(CC1)C(O)C2` (stereo not shown) [Compound 362, 2-[(2,2-difluoro-2H-1,3-benzodioxol-5-yl)oxy]-N-{4-[2-(3,4-difluorophenoxy)acetamido]-2-hydroxybicyclo[2.2.2]octan-1-yl}acetamide], the EC50 is below 10 nM.

Take `O=C(COc1ccc(Cl)c(F)c1)NC12CCC(NCCOc3ccc(Cl)c(Cl)c3)(CC1)C(O)C2` (stereo not shown) [Compound 335, 2-(4-chloro-3-fluorophenoxy)-N-(4-{[2-(3,4-dichlorophenoxy)ethyl]amino}-3-hydroxybicyclo[2.2.2]octan-1-yl)acetamide]: the half-maximal effective concentration (EC50) is below 10 nM.

Regarding `O=C(COc1ccc(Cl)c(F)c1)NC12CCC(NC(=O)COc3noc4ccccc34)(CC1)[C@@H](O)C2` [Compound 515, 2-[(1,2-benzoxazol-3-yl)oxy]-N-{(2S)-4-[2-(4-chloro-3-fluorophenoxy)acetamido]-2-hydroxybicyclo[2.2.2]octan-1-yl}acetamide], the EC50 was below 10 nM.

For the compound `CS(=O)(=O)c1cc(F)ccc1OCC(=O)NC12CCC(NC(=O)COc3ccc(Cl)c(F)c3)(CC1)[C@@H](O)C2` [Compound 751, 2-(4-chloro-3-fluorophenoxy)-N-[(2S)-4-{2-[4-fluoro-2-(methanesulfonyl)phenoxy]acetamido}-2-hydroxybicyclo[2.2.2]octan-1-yl]acetamide], the EC50 was above 2000 nM.

In the case of `COc1ccc(OCC(=O)NC23CC(NC(=O)COc4ccc5c(c4)OC(F)(F)O5)(C2)C3)cn1` [Compound 271, 2-[(2,2-difluoro-2H-1,3-benzodioxol-5-yl)oxy]-N-(3-{2-[(6-methoxypyridin-3-yl)oxy]acetamido}bicyclo[1.1.1]pentan-1-yl)acetamide], the concentration for a half-maximal effect (EC50) lay in the range of 10 to 50 nM.

For the compound `O=C(/C=C/c1ccc(C(F)(F)F)cc1)NC12CC(NC(=O)COc3ccc(Cl)c(F)c3)(C1)C2` [Compound 346, (2E)-N-{3-[2-(4-chloro-3-fluorophenoxy)acetamido]bicyclo[1.1.1]pentan-1-yl}-3-[4-(trifluoromethyl)phenyl]prop-2-enamide], the EC50 is 50 to 250 nM.

With `O=C(COc1ccc(Cl)c(F)c1)NC12CCC(NC(=O)COc3ccc(Cl)c(F)c3)(CC1)C(O)C2O` (stereo not shown) [Compound 548, N,N′-(2,3-dihydroxybicyclo[2.2.2]octane-1,4-diyl)bis[2-(4-chloro-3-fluorophenoxy)acetamide]], the EC50 was below 10 nM.

Regarding `O=C(COc1cncc(C(F)(F)F)c1)NC12CCC(NC(=O)COc3ccc(Cl)c(F)c3)(C1)C2` [Compound 355, 2-(4-chloro-3-fluorophenoxy)-N-[4-(2-{[5-(trifluoromethyl)pyridin-3-yl]oxy}acetamido)bicyclo[2.1.1]hexan-1-yl]acetamide], the EC50 lay in the range of 50 to 250 nM.

For `COC(=O)c1cc(OCC(=O)NC23CCC(NC(=O)COc4ccc(Cl)c(F)c4)(CC2)C[C@@H]3O)no1` [Compound 519, methyl 3-[2-({(2S)-4-[2-(4-chloro-3-fluorophenoxy)acetamido]-2-hydroxybicyclo[2.2.2]octan-1-yl}amino)-2-oxoethoxy]-1,2-oxazole-5-carboxylate], the EC50 was above 2000 nM.
